Experimental data from US6627771B1, “Gamma amino butyric and acid analogs” (Pfizer Inc, priority 1998, dated 2003).
Read-outs that look alike come from different tables or passages of the source.

What was measured:
System L = System L Binding
[1] = test system: Carrageenin-Induced Hyperalgesia; assay: Pain Model (Carrageenin-Induced Hyperalgesia, rat paw pressure test); assay type: in vivo
Procedure: Carrageenin-Induced Hyperalgesia
Nociceptive pressure thresholds were measured in the rat paw pressure test using an analgesymeter (Randall-Sellitto Method: Randall L. O., Sellitto J. J., A method for measurement of analgesic activity on inflamed tissue. Arch. Int. Pharmacodyn., 4:409-419 (1957)). Male Sprague-Dawley rats (70-90 g) were trained on this apparatus before the test day. Pressure was gradually applied to the hind paw of each rat and nociceptive thresholds were determined as the pressure (g) required to elicit paw withdrawal. A cutoff point of 250 g was used to prevent any tissue damage to the paw. On the test day, two to three baseline measurements were taken before animals were administered 100 μL of 2% carrageenin by intraplantar injection into the right hind paw.

[2] = test system: sound-induced seizure responses in DBA/2 mice; assay: DBA2 Mouse Model of Anticonvulsant Efficacy; assay type: in vivo; settings: for responders at 30 mg/kg: Mus musculus, po, read-out: DBA2 Mouse Model % Protected
Procedure: DBA2 Mouse Model of Anticonvulsant Efficacy
All procedures were carried out in compliance with the NIH Guide for the Care and Use of Laboratory Animals under a protocol approved by the Parke-Davis Animal Use Committee. Male DBA/2 mice, 3 to 4 weeks old were obtained from Jackson Laboratories Bar Harbour, Maine. Immediately before anticonvulsant testing, mice were placed upon a wire mesh, 4 inches square, suspended from a steel rod. The square was slowly inverted through 180° and mice observed for 30 seconds. Any mouse falling from the wire mesh was scored as ataxic (Coughenour L. L., McLean J. R., Parker R. B., “A new device for the rapid measurement of impaired motor finction in mice,” Pharm. Biochem. Behav., 1977;6(3):351-3). Mice were placed into an enclosed acrylic plastic chamber (21 cm height, approximately 30 cm diameter) with a high-frequency speaker (4 cm diameter) in the center of the top lid. An audio signal generator (Protek model B-810) was used to produce a continuous sinusoidal tone that was swept linearly in frequency between 8 kHz and 16 kHz once each 10 msec. The average sound pressure level (SPL) during stimulation was approximately 100 dB at the floor of the chamber. Mice were placed within the chamber and allowed to acclimatize for one minute. […] The incidence of all the seizure phases in the drug-treated and vehicle-treated mice was recorded, and the occurrence of tonic seizures were used for calculating anticonvulsant ED50 values by probit analysis (Litchfield J. T., Wilcoxon F. “A simplified method for evaluating dose-effect experiments,” J. Pharmacol., 1949;96:99-113). […] Groups of DBA/2 mice (n=5-10 per dose) were tested for sound-induced seizure responses 2 hours (previously determined time of peak effect) after given drug orally. […] Doses are expressed as weight of the active drug moiety.

[3] = test system: Vogel Conflict (punished drinking) in Wistar rats; assay: Vogel Conflict; assay type: in vivo, rat; settings: summary of Table 1
Procedure: Vogel J. R., Beer B. and Cloody D. E., 1971, reported the procedure used. Basically, in each experiment, 100 näive adult male Wistar rats between 170-220 gm were randomly divided into 10 groups and deprived of water for 48 hours prior to testing. Food was available on Day 1 and removed 24 hours prior to test Day 2.
On Day 1, experimental subjects were placed into the test chambers and allowed to drink 5 mL of water unpunished from a drinking tube on a water bottle mounted on the outside of the chamber. Immediately following the unpunished drinking session, each rat was dosed (PO) with vehicle (1 mL/kg) and returned to their home cage. On test Day 2, rats are dosed with the appropriate treatment and placed in test cages, following a 2-hour absorption period each rat is placed into a test chamber and allowed to drink for 10 minutes. Adjacent to the drink-tube is an optical lickmeter with a photo beam detector that counts the number of licks during active drinking. Every 10 licks, the rats received 1-second shock (1 mA) through the drink tube. Thus, a conflict or anxiety-producing situation exists; rats are motivated to drink, however, they are inhibited by the shock. Anxiety is reflected by the low amounts of drinking. Standard anxiolytic drugs produce effects that allow rats to overcome this behavioral inhibition and drink despite the shock.

SMILES | IC50 (System L) [µM] | Pain Model % MPE 1 Hour [1] [% MPE] | Pain Model % MPE 2 Hour [1] [% MPE] | antihyperalgesic activity ([1]; summary of Table 1) | preventing convulsions ([2]; summary of Table 1) | antianxiety activity [3] | responders at 30 mg/kg ([2]; 1 Hr @ 30 m/k) [%] | responders at 30 mg/kg ([2]; 2 Hr @ 30 m/k) [%]
NCC(CC(=O)O)CC1CCC1 (centres unmarked) [Example 7] | 2600 | 1.5 | −3.4 | – | – | – | – | –
NC[C@H](CC(=O)O)C1CCCC1 [4R+, 4(R)-Amino-3-cyclopentyl-butyric Acid] | 198 | 36 | 13.7 | especially active | especially active | especially active | – | –
CC(CN)(CC(=O)O)CC1CCCC1 (centres unmarked) [Example 13] | 1040 | – | – | – | – | – | – | –
CC(CN)(CC(=O)O)C1CCC1 (centres unmarked) [Example 11] | 74 | 4.2 | 3.1 | – | – | – | – | –
NCC(CC(=O)O)CC1CCCCC1 (centres unmarked) [Example 9] | 5500 | – | – | – | – | – | – | –
CC(CN)(CC(=O)O)C1CC1 (centres unmarked) [Example 10] | 599 | −4.3 | −9.1 | – | – | – | – | –
NCC(CC(=O)O)CC1CCCC1 (centres unmarked) [Example 8] | 4640 | – | – | – | – | – | – | –
CC(CN)(CC(=O)O)CC1CCC1 (centres unmarked) [Example 12] | 105 | −4.2 | −5.2 | – | – | – | – | –
NCC(CC(=O)O)CC1CC1 (centres unmarked) [Example 6] | 1870 | 2.3 | −3.4 | – | – | – | – | –
NCC(CC(=O)O)C1CCCC1 (centres unmarked) [Example 3, 4-Amino-3-cyclopentyl-butyric Acid] | 464 | 73.8 | 27.7 | – | – | – | – | –
NC[C@@H](CC(=O)O)C1CCCC1 [5S−, (S)-4-Amino-3-cyclopentyl-butyric Acid] | 476 | 35 | 24 | – | – | – | – | –
NCC(CC(=O)O)C1CCC1 (centres unmarked) [Example 2, 4-Amino-3-cyclobutyl-butyric Acid] | 1500 | −1.7 | −12.1 | – | – | – | 0 | 40
